One assay has as its target T1, human TRPV1 (Homo sapiens, UniProt Q8NER1).
T1 construct: expressed in transfected cells; host or cells: HEK293
Description: Block of capsaicin-induced Ca2+ influx, human assay (hTRPV1/HEK293, FLIPR). The assay is classed as cell-based. To be noted: HEK293 cells transfected with human TRPV1; 150 nM capsaicin challenge; mean; > value = solubility limit in assay medium. Here is the method: (§1) HEK293 cells were transfected with human TRPV1 cloned in pcDNA3.1zeo(+) using the Effectene non-liposomal lipid based transfection kit (Qiagen) (hTRPV1/HEK293). hTRPV1/HEK293 cells were routinely grown as monolayers under selection in zeocin (200 μg/mL; Invitrogen) in Dulbecco's Modified Eagle Medium (DMEM, Gibco BRL) supplemented with 10% fetal bovine serum, and penicillin/streptomycin (50 units/mL) in 5% CO2 at 37° C. Cells were passaged frequently, every 3-5 days, to avoid overgrowth, depletion of essential medium components, or acidic medium exposure. Cells were passaged using a brief wash in 0.05% trypsin with 1 mM EDTA, followed by dissociation in divalent-free phosphate-buffered saline (Hyclone #SH30028.02). […] The assay buffer was composed of 130 mM NaCl, 2 mM KCl, 2 mM MgCl2, 10 mM HEPES, 5 mM glucose, and either 2 mM or 20 μM CaCl2. On the day of the experiment, the culture medium was replaced with 2 mM calcium assay buffer using an automated plate washer (ELx405; Biotek, VT). […] After loading the cells, the dye solution was replaced with 50 μL/well of 20 μM calcium assay buffer using the ELx405 plate washer. Test compounds (50 μL/well) were added to the plate and incubated for 30 min. Intracellular Ca^2+ levels were subsequently assayed using a Fluorometric Imaging Plate Reader (FLIPR™ instrument, Molecular Devices, CA) to simultaneously monitor Fluo-3 fluorescence in all wells (λexcitation=488 nm, λemission=540 nm) during challenge with agonist (capsaicin). The IC50 values were determined. […] The contents of the wells were mixed 3 times (40 μL mix volume) immediately after the additions were made. Concentration-dependence of block was determined by exposing each well of cells in duplicate rows of a 96-well plate to a serial dilution of test compound. The concentration series usually started at 10 μM with a three-fold serial decrement in concentration. The magnitude of the capsaicin response was determined by measuring the change in fluo3 fluorescence before and 100 seconds after the addition of the agonist. Data were analyzed using a non-linear regression program (Origin; OriginLab, MA).
(§2) IC50 values shown are the average (mean) of the results obtained. […] Compounds were tested as in the free base, trifluoroacetic acid salt, or hydrochloride salt form.

The target of another assay is T2, rat TRPV1 (Rattus norvegicus, UniProt O35433).
T2 construct: expressed in transfected cells; host or cells: HEK293
Description: Block of capsaicin-induced Ca2+ influx, rat assay (rTRPV1/HEK293, FLIPR). The assay is classed as cell-based. To be noted: HEK293 cells transfected with rat TRPV1; capsaicin challenge; mean; > value = solubility limit in assay medium; read-out: Rat IC50. Here is the method: as §1
This assay was performed similarly to the human assay described above, but using HEK293 cells transfected with rat TRPV1 (rTRPV1/HEK293).
as §2

This is an account of results in US9440978B2, “Imidazolo-, oxazolo-, and thiazolopyrimidine modulators of TRPV1” (Janssen Pharmaceutica NV, priority 2007, dated 2016).

Structures can show the parent of a compound that is named as a salt.

T1 sequence (Q8NER1 whole entry): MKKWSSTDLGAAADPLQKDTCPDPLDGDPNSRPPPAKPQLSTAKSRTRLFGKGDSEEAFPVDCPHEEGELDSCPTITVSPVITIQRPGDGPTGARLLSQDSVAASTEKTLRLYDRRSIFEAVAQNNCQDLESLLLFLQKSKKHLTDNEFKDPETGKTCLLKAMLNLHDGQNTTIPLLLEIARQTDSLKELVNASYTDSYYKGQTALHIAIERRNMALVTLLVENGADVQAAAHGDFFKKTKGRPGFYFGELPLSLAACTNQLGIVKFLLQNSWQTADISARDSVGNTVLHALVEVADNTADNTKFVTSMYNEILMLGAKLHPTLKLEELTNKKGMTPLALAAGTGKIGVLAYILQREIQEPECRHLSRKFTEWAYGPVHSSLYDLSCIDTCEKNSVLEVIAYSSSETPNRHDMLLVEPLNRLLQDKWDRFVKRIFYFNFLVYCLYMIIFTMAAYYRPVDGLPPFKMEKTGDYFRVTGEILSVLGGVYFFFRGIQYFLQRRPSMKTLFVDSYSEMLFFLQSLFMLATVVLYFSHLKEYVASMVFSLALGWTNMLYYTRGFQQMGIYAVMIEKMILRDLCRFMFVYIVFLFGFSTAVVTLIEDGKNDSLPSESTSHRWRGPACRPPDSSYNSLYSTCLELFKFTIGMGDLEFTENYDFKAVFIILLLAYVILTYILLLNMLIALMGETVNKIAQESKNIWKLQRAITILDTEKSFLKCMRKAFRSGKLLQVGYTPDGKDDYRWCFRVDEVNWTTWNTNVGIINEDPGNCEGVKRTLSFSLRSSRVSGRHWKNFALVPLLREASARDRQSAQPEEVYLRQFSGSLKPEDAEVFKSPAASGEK
T2 sequence (O35433 whole entry): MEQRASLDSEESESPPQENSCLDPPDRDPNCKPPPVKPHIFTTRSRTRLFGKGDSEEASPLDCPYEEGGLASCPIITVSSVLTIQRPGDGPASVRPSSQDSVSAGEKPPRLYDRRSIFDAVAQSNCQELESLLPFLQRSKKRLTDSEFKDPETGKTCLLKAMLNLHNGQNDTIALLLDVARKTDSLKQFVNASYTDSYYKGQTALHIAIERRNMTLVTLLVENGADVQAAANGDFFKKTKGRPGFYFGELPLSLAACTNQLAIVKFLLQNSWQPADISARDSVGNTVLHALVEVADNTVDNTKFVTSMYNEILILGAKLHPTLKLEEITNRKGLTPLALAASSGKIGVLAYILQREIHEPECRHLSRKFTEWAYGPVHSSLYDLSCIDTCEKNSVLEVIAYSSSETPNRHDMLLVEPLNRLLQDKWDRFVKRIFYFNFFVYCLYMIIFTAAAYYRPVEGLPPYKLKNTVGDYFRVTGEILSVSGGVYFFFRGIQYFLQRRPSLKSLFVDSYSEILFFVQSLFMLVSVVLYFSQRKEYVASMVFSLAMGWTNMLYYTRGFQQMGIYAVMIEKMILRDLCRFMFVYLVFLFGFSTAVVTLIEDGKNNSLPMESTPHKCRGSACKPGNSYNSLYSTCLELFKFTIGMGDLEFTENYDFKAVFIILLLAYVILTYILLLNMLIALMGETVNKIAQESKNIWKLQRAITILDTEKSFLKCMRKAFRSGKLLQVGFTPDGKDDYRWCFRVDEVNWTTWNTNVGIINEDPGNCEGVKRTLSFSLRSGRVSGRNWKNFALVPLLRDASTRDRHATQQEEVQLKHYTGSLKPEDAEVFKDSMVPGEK

For the molecule `Cc1ccc(Nc2ncnc3sc(Cc4c(Cl)cccc4Cl)nc23)cc1` [Example 46, 2-(2,6-Dichlorobenzyl)-N-(4-methylphenyl)[1,3]thiazolo[5,4-d]pyrimidin-7-amine], the results for the 50% inhibitory concentration (IC50) at human TRPV1 and at rat TRPV1 were greater than 6670 nM and 52 nM, respectively.

Turning to `CC(C)(C(N)=O)c1ccc(Nc2ncnc3sc(Cc4c(Cl)cccc4Cl)nc23)cc1` [Example 47, 2-(4-{[2-(2,6-Dichlorobenzyl)[1,3]thiazolo[5,4-d]pyrimidin-7-yl]amino}phenyl)-2-methylpropanamide], the values for the concentration for half-maximal inhibition (IC50) against human TRPV1 and on rat TRPV1 were 8900 nM and 4490 nM, respectively.

Regarding `FC(F)(F)c1ccccc1Cc1nc2c(Nc3ccccc3)ncnc2s1` [Example 48, N-Phenyl-2-[2-(trifluoromethyl)benzyl][1,3]thiazolo[5,4-d]pyrimidin-7-amine], the IC50 (usually the concentration that gives 50% inhibition) against human TRPV1 worked out at 852 nM; at rat TRPV1 it was 410 nM.

Turning to `FC(F)(F)c1ccccc1Cc1nc2c(Nc3ccc(Br)cc3)ncnc2s1` [Example 49, N-(4-Bromophenyl)-2-[2-(trifluoromethyl)benzyl][1,3]thiazolo[5,4-d]pyrimidin-7-amine], the 50% inhibitory concentration (IC50) against human TRPV1 turned out to be 59 nM; at rat TRPV1, 16 nM.

On to `CC(C)(C)c1ccc(Nc2ncnc3sc(Cc4ccccc4C(F)(F)F)nc23)cc1` [Example 50, N-(4-tert-Butylphenyl)-2-[2-(trifluoromethyl)benzyl][1,3]thiazolo[5,4-d]pyrimidin-7-amine], for which the IC50 at human TRPV1 is 34 nM; on rat TRPV1, 6 nM.

Regarding `CS(=O)(=O)c1ccc(Nc2ncnc3sc(Cc4ccccc4C(F)(F)F)nc23)cc1` [Example 51, N-[4-(Methylsulfonyl)phenyl]-2-[2-(trifluoromethyl)benzyl][1,3]thiazolo[5,4-d]pyrimidin-7-amine], the results for the IC50 against human TRPV1 and on rat TRPV1 were 202 nM and 39 nM, respectively.

Take `O=S(=O)(c1ccc(Nc2ncnc3sc(Cc4ccccc4C(F)(F)F)nc23)cc1)N1CCOCC1` [Example 52, N-[4-(Morpholin-4-ylsulfonyl)phenyl]-2-[2-(trifluoromethyl)benzyl][1,3]thiazolo[5,4-d]pyrimidin-7-amine]: the IC50 is 59 nM on human TRPV1 and 44 nM on rat TRPV1.

As for `FC(F)(F)c1ccc(Nc2ncnc3sc(Cc4cccc(Cl)c4)nc23)cn1` [Example 53, 2-(3-Chlorobenzyl)-N-[6-(trifluoromethyl)pyridin-3-yl][1,3]thiazolo[5,4-d]pyrimidin-7-amine], the IC50 against human TRPV1 came to 336 nM; on rat TRPV1, 118 nM.

Consider `FC(F)(F)c1ccc(Nc2ncnc3sc(Cc4cccc(Cl)c4)nc23)cc1` [Example 54, 2-(3-Chlorobenzyl)-N-[4-(trifluoromethyl)phenyl][1,3]thiazolo[5,4-d]pyrimidin-7-amine], for which the IC50 at human TRPV1 is 252 nM; on rat TRPV1 it was 88 nM.

With `Cc1cccc(C)c1Cc1nc2c(Nc3ccccc3)ncnc2s1` [Example 55, 2-(2,6-Dimethylbenzyl)-N-phenyl[1,3]thiazolo[5,4-d]pyrimidin-7-amine], the half-maximal inhibitory concentration (IC50) against human TRPV1 is 3440 nM; at rat TRPV1, 2860 nM.

For the molecule `Cc1cccc(C)c1Cc1nc2c(Nc3ccc(Br)cc3)ncnc2s1` [Example 56, N-(4-Bromophenyl)-2-(2,6-dimethylbenzyl)[1,3]thiazolo[5,4-d]pyrimidin-7-amine], the figures for the 50% inhibitory concentration (IC50) against human TRPV1 and on rat TRPV1 were 714 nM and 475 nM, respectively.

As for `Cc1cccc(C)c1Cc1nc2c(Nc3ccc(C(C)(C)C)cc3)ncnc2s1` [Example 57, N-(4-tert-Butylphenyl)-2-(2,6-dimethylbenzyl)[1,3]thiazolo[5,4-d]pyrimidin-7-amine], the concentration for half-maximal inhibition (IC50) on human TRPV1 was 252 nM; on rat TRPV1, 51 nM.

As for `Cc1cccc(C)c1Cc1nc2c(Nc3ccc(C(F)(F)F)cc3)ncnc2s1` [Example 58, 2-(2,6-Dimethylbenzyl)-N-[4-(trifluoromethyl)phenyl][1,3]thiazolo[5,4-d]pyrimidin-7-amine], the concentration for half-maximal inhibition (IC50) came out at 75 nM against human TRPV1 and 82 nM at rat TRPV1.

For `Cc1cccc(C)c1Cc1nc2c(Nc3ccc(C(F)(F)F)nc3)ncnc2s1` [Example 59, 2-(2,6-Dimethylbenzyl)-N-[6-(trifluoromethyl)pyridin-3-yl][1,3]thiazolo[5,4-d]pyrimidin-7-amine], the results for the 50% inhibitory concentration (IC50) on human TRPV1 and at rat TRPV1 were 139 nM and 183 nM, respectively.

`Cc1cccc(C)c1Cc1nc2c(Nc3ccc(S(=O)(=O)N4CCOCC4)cc3)ncnc2s1` [Example 60, 2-(2,6-Dimethylbenzyl)-N-[4-(morpholin-4-ylsulfonyl)phenyl][1,3]thiazolo[5,4-d]pyrimidin-7-amine]: the figures for the IC50 at human TRPV1 and at rat TRPV1 were 209 nM and 204 nM, respectively.

For `Cc1cccc(C)c1Cc1nc2c(Nc3ccc(S(C)(=O)=O)cc3)ncnc2s1` [Example 61, 2-(2,6-Dimethylbenzyl)-N-[4-(methylsulfonyl)phenyl][1,3]thiazolo[5,4-d]pyrimidin-7-amine], the 50% inhibitory concentration (IC50) at human TRPV1 came out at 496 nM; on rat TRPV1 it was 253 nM.

For the molecule `CS(=O)(=O)c1nc(Nc2ccc(C(F)(F)F)cc2)c2nc(Cc3c(Cl)cccc3Cl)sc2n1` [Example 62, [2-(2,6-Dichloro-benzyl)-5-methanesulfonyl-thiazolo[5,4-d]pyrimidin-7-yl]-(4-trifluoromethyl-phenyl)-amine], the half-maximal inhibitory concentration (IC50) against human TRPV1 was determined as 72 nM; on rat TRPV1, 32 nM.

With `FC(F)(F)c1ccc(Nc2nc(N3CCOCC3)nc3sc(Cc4c(Cl)cccc4Cl)nc23)cc1` [Example 63, [2-(2,6-Dichloro-benzyl)-5-morpholin-4-yl-thiazolo[5,4-d]pyrimidin-7-yl]-(4-trifluoromethyl-phenyl)-amine], the results for the concentration for half-maximal inhibition (IC50) on human TRPV1 and on rat TRPV1 were greater than 6670 nM and 3560 nM, respectively.

On to `CC1CCCN1c1nc(Nc2ccc(C(F)(F)F)cc2)c2nc(Cc3c(Cl)cccc3Cl)sc2n1` (centres unmarked) [Example 64, [2-(2,6-Dichloro-benzyl)-5-(2-methyl-pyrrolidin-1-yl)-thiazolo[5,4-d]pyrimidin-7-yl]-(4-trifluoromethyl-phenyl)-amine], for which the IC50 against human TRPV1 was found to be 466 nM; at rat TRPV1, 323 nM.

As to `FC(F)(F)c1ccc(Nc2nc(NCCN3CCOCC3)nc3sc(Cc4c(Cl)cccc4Cl)nc23)cc1` [Example 65, 2-(2,6-Dichloro-benzyl)-N^5-(2-morpholin-4-yl-ethyl)-N^7-(4-trifluoromethyl-phenyl)-thiazolo[5,4-d]pyrimidine-5,7-diamine trifluoroacetic acid salt], the concentration for half-maximal inhibition (IC50) on human TRPV1 turned out to be 461 nM; at rat TRPV1, 266 nM.

Take `FC(F)(F)c1ccc(Nc2nc(NCC3CC3)nc3sc(Cc4c(Cl)cccc4Cl)nc23)cc1` [Example 66, N^5-Cyclopropylmethyl-2-(2,6-dichloro-benzyl)-N^7-(4-trifluoromethyl-phenyl)-thiazolo[5,4-d]pyrimidine-5,7-diamine]: the IC50 against human TRPV1 is 249 nM; at rat TRPV1, 103 nM.

Take `CC(C)C1CCCN1c1nc(Nc2ccc(C(F)(F)F)cc2)c2nc(Cc3c(Cl)cccc3Cl)sc2n1` (centres unmarked) [Example 68, [2-(2,6-Dichloro-benzyl)-5-(2-isopropyl-pyrrolidin-1-yl)-thiazolo[5,4-d]pyrimidin-7-yl]-(4-trifluoromethyl-phenyl)-amine]: the IC50 on human TRPV1 is 2320 nM; at rat TRPV1, 1690 nM.

As for `CC(C)CNc1nc(Nc2ccc(C(F)(F)F)cc2)c2nc(Cc3c(Cl)cccc3Cl)sc2n1` [Example 69, 2-(2,6-Dichloro-benzyl)-N^5-isobutyl-N^7-(4-trifluoromethyl-phenyl)-thiazolo[5,4-d]pyrimidine-5,7-diamine], the IC50 on human TRPV1 amounted to 31 nM; at rat TRPV1 it was 14 nM.

Take `FC(F)(F)c1ccc(Nc2nc(N3CCN(C4CCCC4)CC3)nc3sc(Cc4c(Cl)cccc4Cl)nc23)cc1` [Example 76, [5-(4-Cyclopentyl-piperazin-1-yl)-2-(2,6-dichloro-benzyl)-thiazolo[5,4-d]pyrimidin-7-yl]-(4-trifluoromethyl-phenyl)-amine trifluoroacetic acid salt]: the IC50 is 310 nM at human TRPV1 and 74 nM on rat TRPV1.

For `FC(F)(F)c1ccc(Nc2nc(N3CCC(N4CCCC4)CC3)nc3sc(Cc4c(Cl)cccc4Cl)nc23)cc1` [Example 77, [2-(2,6-Dichloro-benzyl)-5-(4-pyrrolidin-1-yl-piperidin-1-yl)-thiazolo[5,4-d]pyrimidin-7-yl]-(4-trifluoromethyl-phenyl)-amine trifluoroacetic acid salt], the IC50 at human TRPV1 was determined as 1120 nM; at rat TRPV1, 4340 nM.
